# Tested on: Human melanoma HM3KO cells
# Experiment: Effect on inhibition of melanin production
# Assay type: cell-based
# Settings: 10 ppm of each test material, absorbance at 500 nm vs DMSO control
# Experimental: Human melanoma HM3KO cells (Y. Funasaka, Department of dermatology, Kobe university school of medicine, 5-1 Kusunoki-cho 7-chrome, Chuo-ku, Kobe 650, Japan) were cultured in 10% FBS-containing MEM (Minimum Essential Medium) under the conditions of 37° C. and 5% CO2. The cultured cells were plated on T75 flasks at a density of 3×10^5 cells per flask and allowed to stand overnight until the cells adhered to the flask wall. After the cells were confirmed to adhere to the flask wall, the medium was replaced with a fresh medium containing 10 ppm of each of the test materials shown in Table 1 below. In a control group, a DMSO-containing medium was used. In this manner, the medium was replaced with a fresh medium containing each test material once at intervals of 2-3 days, while the cells were cultured until the flask was filled with the cells. When the cells completely grew, the cells were collected, and the color thereof was compared between the control group and each of the groups treated with the test material. In addition, after the culture medium has been removed and the cells were washed with PBS, the cells were dissolved in 1N sodium hydroxide, and the absorbance at 500 nm was measured. Based on the measurements, the inhibition (%) of melanin production was calculated using the following equation 1, and the results of the calculation are shown in Table 1 below. Inhibition (%) of melanin production=[…] [Equation 1]
row,Compound,inhibition at 10 ppm [%]
1,O=c1cc(CO)occ1O [Kojic acid],28.3
2,NC(=O)c1cccnc1 [Nicotinic acid amide],29.5
3,NC[C@H]1CC[C@H](C(=O)O)CC1 [Tranexamic acid],32.2

# Source: patent US20130018020A1, “INHIBITOR FOR MELANIN, AND COSMETIC COMPOSITION CONTAINING SAME” (AMOREPACIFIC CORPORATION, priority 2010, published 2013)
